Literature values in patent publication US7012060B1, “TNF receptor and steroid hormone in a combined therapy” (priority 1995, dated 2006).

How the values were obtained:
[1] = test system: septic shock induced by lipopolysaccharides (LPS) alone; conditions: mice; cited from earlier work
[2] = test system: septic shock induced by Tumor Necrosis Factor alpha (TNF-α) in combination with D-Galactosamine; conditions: mice; cited from earlier work

Compound: C[C@]12CC[C@H](O)CC1=CC[C@@H]1[C@@H]2CC[C@]2(C)C(=O)CC[C@@H]12 [DHEA, Dehydroepiandrosterone]
- protection from septic shock [1]: protecting mice from septic shock
- protection from septic shock [2]: protecting mice from septic shock
